Measurements taken from patent publication US5977110A, “Substituted cyclohexylamines as central nervous systems agents” (Warner-Lambert Company, priority 1998, dated 1999).
Structures can show the parent of a compound that is named as a salt. Where two headings read alike, the source gives them in different places.

Legend:
[1] = system: spontaneous locomotor activity in mice; assay: Inhibition of spontaneous locomotor activity in mice, a test predictive of antipsychotic activity; format: in vivo; conditions: Mus musculus, read-out: Inhibition of Locomotor Activity in Mice (ED50, mg/kg, IP)
Protocol: (§1) The compounds of Formula I are valuable dopaminergic and serotonergic agents. […] Thus, the compounds of Formula I were tested for their ability to inhibit spontaneous locomotor activity in mice, a test predictive of antipsychotic activity, according to the assay described by McLean J. R., et al., Pharmacology, Biochemistry and Behavior, 1978;8:97-99; for their ability to bind to the dopamine D2 receptor using [^3 H]-2-(N-propyl-N-2-thienylethylamino)-5-hydroxytetralin ([^3 H)N-0437) as the ligand according to the method disclosed in Van der Weide J., et al., Eur. J. Pharmacol., 1987;134:211-219; and for their ability to bind to the serotonin 5HT1A receptor using [^3 H]-8-hydroxy-dipropylaminotetralin ([^3 H]-8-OH-DPAT) as the ligand according to the method disclosed in Peroutka S. J., et al., Brain Res., 1985;344:167-171. The above test methods are incorporated herein by reference. The data in the table show the dopaminergic and serotonergic activity of representative compounds of Formula I.

[2] = molecular target: T1, serotonin 5HT1A receptor (Rat Hippocampus Membranes) (Rattus norvegicus, UniProt P19327); assay: Inhibition of [^3 H]8-OH-DPAT Binding to Rat Hippocampus Membranes; conditions: [^3 H]-8-OH-DPAT ligand
T1 construct: Hippocampus; from tissue; host or cells: rat hippocampus membranes
T1 sequence (P19327 1-422): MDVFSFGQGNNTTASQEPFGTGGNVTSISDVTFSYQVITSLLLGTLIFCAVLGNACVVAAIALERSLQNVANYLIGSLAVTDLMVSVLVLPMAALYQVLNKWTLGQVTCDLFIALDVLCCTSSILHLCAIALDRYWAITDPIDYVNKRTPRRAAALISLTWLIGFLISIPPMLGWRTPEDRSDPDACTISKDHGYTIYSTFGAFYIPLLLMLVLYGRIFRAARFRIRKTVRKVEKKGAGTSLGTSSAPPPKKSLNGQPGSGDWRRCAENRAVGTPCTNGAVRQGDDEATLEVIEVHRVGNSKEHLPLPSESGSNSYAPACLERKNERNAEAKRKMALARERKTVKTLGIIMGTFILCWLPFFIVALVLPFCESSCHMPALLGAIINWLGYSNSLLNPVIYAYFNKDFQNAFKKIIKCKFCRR
Protocol: as §1

[3] = molecular target: dopamine D2 receptor (h-D2 Receptors) (Homo sapiens, UniProt P14416); assay: Inhibition of [^3 H]N-0437 Binding to h-D2 Receptors; conditions: [^3 H]N-0437 ligand
Protocol: Thus, the compounds of Formula I were tested for their ability to inhibit spontaneous locomotor activity in mice, a test predictive of antipsychotic activity, according to the assay described by McLean J. R., et al., Pharmacology, Biochemistry and Behavior, 1978;8:97-99; for their ability to bind to the dopamine D2 receptor using [^3 H]-2-(N-propyl-N-2-thienylethylamino)-5-hydroxytetralin ([^3 H)N-0437) as the ligand according to the method disclosed in Van der Weide J., et al., Eur. J. Pharmacol., 1987;134:211-219; and for their ability to bind to the serotonin 5HT1A receptor using [^3 H]-8-hydroxy-dipropylaminotetralin ([^3 H]-8-OH-DPAT) as the ligand according to the method disclosed in Peroutka S. J., et al., Brain Res., 1985;344:167-171. The above test methods are incorporated herein by reference.

Sequence of dopamine D2 receptor (h-D2 Receptors) (P14416 whole entry): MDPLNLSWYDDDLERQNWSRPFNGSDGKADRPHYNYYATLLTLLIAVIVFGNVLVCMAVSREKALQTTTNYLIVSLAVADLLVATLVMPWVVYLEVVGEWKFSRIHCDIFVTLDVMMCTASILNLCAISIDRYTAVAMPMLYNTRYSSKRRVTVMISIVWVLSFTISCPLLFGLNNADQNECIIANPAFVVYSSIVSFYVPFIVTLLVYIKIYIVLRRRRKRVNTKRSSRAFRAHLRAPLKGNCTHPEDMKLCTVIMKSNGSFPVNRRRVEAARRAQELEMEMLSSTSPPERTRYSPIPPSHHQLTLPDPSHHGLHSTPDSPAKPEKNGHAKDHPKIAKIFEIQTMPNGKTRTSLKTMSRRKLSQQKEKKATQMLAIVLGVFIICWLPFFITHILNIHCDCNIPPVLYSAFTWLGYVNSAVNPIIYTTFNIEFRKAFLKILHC

| SMILES | ED50 ([1]; mice, IP, ED50) | Ki [2] | Ki [3] | ED50 ([1]; ip) |
| --- | --- | --- | --- | --- |
| Cl.c1ccc(N2CCN(CC[C@H]3CC[C@@H](Nc4ncccn4)CC3)CC2)nc1 [Example 1, cis-{4-[2-(4-Pyridin-2-yl-piperazin-1-yl)-ethyl]-cyclohexyl}-pyrimidin-2-yl-amine hydrochloride] | 1.2 mg/kg | 8.8 nM | – | – |
| c1ccc(N2CCN(CC[C@H]3CC[C@H](Nc4ncccn4)CC3)CC2)nc1 [Example 1a, trans-{4-[2-(4-Pyridin-2-yl-piperazin-1-yl)-ethyl]-cyclohexyl}-pyrimidin-2-yl-amine] | 0.24 mg/kg | – | – | – |
| c1ccc(N2CCN(CC[C@H]3CC[C@H](Nc4ncccn4)CC3)CC2)cc1 [Example 2, trans-{4-[2-(4-Phenyl-piperazin-1-yl)-ethyl]cyclohexyl}-pyrimidin-2-yl-amine] | 0.3 mg/kg | 3.1 nM | 3.4 nM | – |
| c1ccc(N2CCN(CC[C@H]3CC[C@@H](Nc4ncccn4)CC3)CC2)cc1 [Example 9, cis-{4-[2-(4-Phenyl-piperazin-1-yl)-ethyl]-cyclohexyl}-pyrimidin-2-yl-aminehydrochloride] | – | 1.9 nM | 28 nM | – |
| FC(F)(F)c1cccc(N2CCN(CC[C@H]3CC[C@H](Nc4ncccn4)CC3)CC2)c1 [Example 12, trans-Pyrimidin-2-yl-(4-{2-[4-(3-trifluoromethyl-phenyl)-piperazin-1-yl]-ethyl}-cyclohexyl)-amine] | 4.4 mg/kg | – | – | – |
| COc1ccccc1N1CCN(CC[C@H]2CC[C@H](Nc3ncccn3)CC2)CC1 [Example 13, trans-(4-{2-[4-(2-Methoxy-phenyl)-piperazin-1-yl]ethyl}-cyclohexyl)-pyrimidin-2-yl-amine] | 0.5 mg/kg | – | – | – |
| Fc1ccc(N2CCN(CC[C@H]3CC[C@H](Nc4ncccn4)CC3)CC2)cc1 [Example 15, trans-(4-{2-[4-(4-Fluoro-phenyl)-piperazin-1-yl]-ethyl}-cyclohexyl)-pyrimidin-2-yl-amine] | 0.7 mg/kg | 4.4 nM | 8.3 nM | – |
| C1=C(c2ccccc2)CCN(CC[C@H]2CC[C@H](Nc3ncccn3)CC2)C1 [Example 16, trans-{4-[2-(4-Phenyl-3,6-dihydro-2H-pyridin-1-yl)-ethyl]-cyclohexyl}-pyrimidin-2-yl-amine] | – | – | – | 0.25 mg/kg |
| c1cnc(N[C@H]2CC[C@H](CCN3CCN(c4nccs4)CC3)CC2)nc1 [Example 17, trans-Pyrimidin-2-yl-{4-[2-(4-thiazol-2-yl-piperazin-1-yl)-ethyl]-cyclohexyl}-amine] | 0.3 mg/kg | – | – | – |
| c1cnc(N[C@H]2CC[C@H](CCN3CCN(c4cccnc4)CC3)CC2)nc1 [Example 20, trans-{4-[2-(4-Pyridin-3-yl-piperazin-1-yl)-ethyl]-cyclohexyl}-pyrimidin-2-yl-amine] | – | – | 25.3 nM | – |
| c1ccc(N2CCN(CC[C@H]3CC[C@H](Nc4ccccn4)CC3)CC2)cc1 [Example 24, trans-{4-[2-(4-Phenyl-piperazin-1-yl)-ethyl]cyclohexyl}-pyridin-2-yl-amine] | 0.2 mg/kg | 1.2 nM | 1.4 nM | – |
| c1ccc(N2CCN(CC[C@H]3CC[C@H](Nc4nccs4)CC3)CC2)cc1 [Example 26, trans-{4-[2-(4-Phenyl-piperazin-1-yl)-ethyl]-cyclohexyl}-thiazol-2-yl-amine] | – | 7.9 nM | 2.35 nM | – |
| c1ccc(N2CCN(CC[C@H]3CC[C@H](Nc4cnccn4)CC3)CC2)cc1 [Example 27, trans-{4-[2-(4-Phenyl-piperazin-1-yl)-ethyl]-cyclohexyl}-pyrazin-2-yl-amine] | 0.18 mg/kg | 5.1 nM | 0.93 nM | – |
